# Experiment: Lactate concentration-gradient titration of purified probe (ratio of 420 nm to 485 nm excitation, 528 nm emission)
# Type: binding
# Conditions: ratio 420 nm/485 nm excitation
# From the text: (§1) 6. […] The fluorescence excitation and emission determination of the samples were done using a multifunctional fluorescence microplate reader.
row,Substance,magnitude of change
1,P189C/P190Y: LldR(80-258)-185/189-cpYFP mutant,4.3 fold

# Same assay, conditions: ratio 420 nm/485 nm excitation, read-out: Kd (binding constant)
row,Kd,Substance
1,41 µM,P189C/P190Y: LldR(80-258)-185/189-cpYFP mutant

# Experiment: Lactate response detection of purified probe (signal with 10 mM lactate divided by signal without lactate)
# Type: biochemical
# Conditions: M185 saturation mutants of two-site mutants of LldR(80-258)-185/189-cpYFP
row,Substance,Response of the three-site mutants to lactate
1,M185V/P189H/P190D: three-site mutant of LldR(80-258)-185/189-cpYFP,6.2
2,M185L/P189M/P190D: three-site mutant of LldR(80-258)-185/189-cpYFP; Table 4 row printed WD,5.6
3,M185A/P189M/P190D: three-site mutant of LldR(80-258)-185/189-cpYFP; Table 4 row printed WD,8.4
4,M185S/P189H/P190D: three-site mutant of LldR(80-258)-185/189-cpYFP,7.0
5,M185F/P189H/P190D: three-site mutant of LldR(80-258)-185/189-cpYFP,8.0
6,M185L/P189H/P190D: three-site mutant of LldR(80-258)-185/189-cpYFP,15.3

# Experiment: as above
# Type: biochemical
# Conditions: detection signal with 10 mM lactate divided by signal without lactate; mutants of LldR(80-258)-185/189-cpYFP
# Description: 4. After purified proteins were subjected to SDS-PAGE, probes were diluted to a protein solution having a final concentration of 5-10 μM using assay buffer (100 mm HEPES, 100 mM NaCl, pH 7.3) or phosphate buffer PBS.
# as §1
# Mutants of the two sites, 189 and 190, were constructed on the basis of LldR(80-258)-185/189-cpYFP. Plasmid pCDFDuet-LldR(80-258)-185/189-cpYFP was linearized by reverse PCR, mutations were introduced at mutation sites by primers, and the obtained PCR products was ligated by adding phosphorus with PNK, T4 DNA ligase, and PEG4000, transformed into BL21 (DE3), and then screened. […] Exemplary nucleic acid sequences were shown in SEQ ID No: 31 (LldR(80-258)-185/189-P189F/P190D-cpYFP).
row,Substance,Responses to lactate for 189 mutant versus 190 mutant
1,P189N/P190Y: LldR(80-258)-185/189-cpYFP mutant,3.1
2,P189H/P190D: LldR(80-258)-185/189-cpYFP mutant,8.9
3,P189F/P190D: LldR(80-258)-185/189-cpYFP mutant,13.4
4,"P189/P190(WT): lactate optical probe, cpYFP inserted at 185/189 of LldR(80-258), unmutated",0.2
5,P189C/P190Y: LldR(80-258)-185/189-cpYFP mutant,4.0
6,P189M/P190D: LldR(80-258)-185/189-cpYFP mutant,7.0
7,P189H/P190R: LldR(80-258)-185/189-cpYFP mutant,3.2
8,P189N: LldR(80-258)-185/189-cpYFP mutant,2.1
9,P189S: LldR(80-258)-185/189-cpYFP mutant,3.3
10,P189C/P190F: LldR(80-258)-185/189-cpYFP mutant,2.3
11,P189F/P190H: LldR(80-258)-185/189-cpYFP mutant,3.7
12,P189N/P190F: LldR(80-258)-185/189-cpYFP mutant,2.3
13,P189R/P190I: LldR(80-258)-185/189-cpYFP mutant,3.5

# From patent US20230203506A1, “LACTIC ACID OPTICAL PROBE, PREPARATION METHOD THEREFOR AND APPLICATION THEREOF” (East China University of Science and Technology, priority 2019, published 2023)
